Measurements published in patent publication US12583866B2, “Pyrido[2,3-b][1,4]oxazines or tetrahydropyrido[2,3-b][1,4]oxazepines as IAP antagonists” (BEIGENE, LTD., priority 2020, dated 2026).
Where a name gives a salt, the structure may show the parent alone.

How the values were obtained:
[1] = biological target: T1, recombinant human cIAP1-BIR3 protein (Homo sapiens, UniProt Q13490); experiment: Recombinant human c-IAP1-BIR3 biochemical assay (HTRF, peptide displacement); conditions: 1.2 nM cIAP1-BIR3, 3 nM AbuRPF-K(5-Fam)-NH2 peptide, read-out: Protein binding IC50 (nM) c-IAP1
T1 construct: recombinant human cIAP1-BIR3 protein; purchased Reaction biology APT-11-370
T1 sequence (Q13490 253-363 limits assumed): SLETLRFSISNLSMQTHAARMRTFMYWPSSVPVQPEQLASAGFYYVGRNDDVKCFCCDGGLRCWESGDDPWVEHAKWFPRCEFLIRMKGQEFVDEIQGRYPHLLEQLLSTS
Method: I. Recombinant human c-IAP1-BIR3 biochemical assay
(§1) Compounds disclosed herein were tested for blocking of recombinant human cIAP1-BIR3 protein (Cat: APT-11-370, Reaction biology) with its peptide in an assay based on Homogeneous Time Resolved Fluorescence. 1.2 nM recombinant human cIAP1-BIR3 protein was pre-incubated with a serial dilution of compounds disclosed herein (maximum concentration is 10 uM, 4-fold serially diluted, 10 points) at room temperature for 1 hour in an assay buffer containing 20 mM HEPES, pH 7.5, 50 mM NaCl, 0.005% Tween-20, 1 mM DTT. Then 3 nM AbuRPF-K (5-Fam)-NH2 (Cat: 709702, GL Biochem) was added to plate incubated at room temperature for 1 hour. Mab Anti-6His Tb cryptate Gold (Cat: 61HI2TLB, Cisbio Bioassays) was added to plate and further incubated at room temperature for 1 hour. The HTRF signals (ex337 nm, em520 nm/490 nm) were read on BMG PHERAstar FS instrument. The inhibition percentage of cIAP1-BIR3 interaction with its peptide in presence of increasing concentrations of compounds was calculated based on the ratio of fluorescence at 520 nm to that at 490 nm. The IC50 for each compound was derived from fitting the data to the four-parameter logistic equation by Dotmatics and summarized in table 1.

[2] = biological target: T2, recombinant human cIAP2-BIR3 protein (Homo sapiens, UniProt Q13489); experiment: Recombinant human c-IAP2-BIR3 biochemical assay (HTRF, peptide displacement); conditions: 3.7 nM cIAP2-BIR3, 3.7 nM AbuRPF-K(5-Fam)-NH2 peptide, read-out: Protein binding IC50 (nM) c-IAP2
T2 construct: recombinant human cIAP2-BIR3 protein; purchased Reaction biology APT-11-372
T2 sequence (Q13489 238-349 limits assumed): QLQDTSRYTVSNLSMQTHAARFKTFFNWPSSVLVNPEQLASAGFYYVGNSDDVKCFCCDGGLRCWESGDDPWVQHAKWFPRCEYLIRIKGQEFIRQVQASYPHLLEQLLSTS
Method: II. Recombinant Human c-IAP2-BIR3 Biochemical Assay
as §1, with “human cIAP2-BIR3” for “human cIAP1-BIR3”, “(Cat: APT-11-372,” for “(Cat: APT-11-370,”, “Fluorescence. 3.7” for “Fluorescence. 1.2”, “Then 3.7” for “Then 3”, “nM AbuRPF-K(5-Fam)-NH2” for “nM AbuRPF-K (5-Fam)-NH2”, “of cIAP2-BIR3” for “of cIAP1-BIR3”

[3] = biological target: T3, recombinant human XIAP-BIR3 protein (Homo sapiens, UniProt P98170); experiment: Recombinant human XIAP-BIR3 biochemical assay (HTRF, peptide displacement); conditions: 3.7 nM XIAP-BIR3, 7.6 nM AbuRPF-K(5-Fam)-NH2 peptide, read-out: Protein binding IC50 (nM) XIAP
T3 construct: recombinant human XIAP-BIR3 protein; purchased Reaction biology APT-11-374
T3 sequence (P98170 241-356 limits assumed): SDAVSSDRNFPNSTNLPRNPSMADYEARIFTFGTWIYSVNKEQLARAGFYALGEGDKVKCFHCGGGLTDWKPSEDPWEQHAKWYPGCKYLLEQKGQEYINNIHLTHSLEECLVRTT
Method: III. Recombinant Human XIAP-BIR3 Biochemical Assay
as §1, with “human XIAP-BIR3” for “human cIAP1-BIR3”, “(Cat: APT-11-374,” for “(Cat: APT-11-370,”, “Fluorescence. 3.7” for “Fluorescence. 1.2”, “Then 7.6” for “Then 3”, “nM AbuRPF-K(5-Fam)-NH2” for “nM AbuRPF-K (5-Fam)-NH2”, “of XIAP-BIR3” for “of cIAP1-BIR3”

Row | IC50 [1] [nM] | IC50 [2] [nM] | IC50 [3] [nM] | SMILES
1 | 0.2 | 0.35 | 4.4 | C[C@@H]1CN(CC(=O)N2c3cc(Cc4ccc(F)cc4)c(NC(=O)C4CC4)nc3OC[C@@H]2C)[C@@H](CN2[C@H](C)COC[C@H]2C)CN1 [Compound 119, N—((S)-1-(2-((2R,5R)-2-(((3R,5R)-3,5-dimethylmorpholino)methyl)-5-methylpiperazin-1-yl)acetyl)-7-(4-fluorobenzyl)-2-methyl-2,3-dihydro-1H-pyrido[2,3-b][1,4]oxazin-6-yl)cyclopropanecarboxamide]
2 | 0.17 | 0.36 | 3.1 | COCCOc1nc2c(cc1Cc1ccc(F)cc1)N(C(=O)CN1C[C@@H](C)NC[C@@H]1CN1[C@H](C)COC[C@H]1C)[C@@H](C)CO2 [Compound 89, 2-((2R,5R)-2-(((3R,5R)-3,5-dimethylmorpholino)methyl)-5-methylpiperazin-1-yl)-1-((S)-7-(4-fluorobenzyl)-6-(2-methoxyethoxy)-2-methyl-2,3-dihydro-1H-pyrido[2,3-b][1,4]oxazin-1-yl)ethan-1-one]
3 | 0.16 | 0.37 | 3.7 | CC(C)NC(=O)c1nc2c(cc1Cc1ccc(F)cc1)N(C(=O)CN1C[C@@H](C)NC[C@@H]1CN1[C@H](C)COC[C@H]1C)[C@@H](C)CO2 [Example 69, (S)-1-(2-((2R,5R)-2-(((3R,5R)-3,5-dimethylmorpholino)methyl)-5-methylpiperazin-1-yl)acetyl)-7-(4-fluorobenzyl)-N-isopropyl-2-methyl-2,3-dihydro-1H-pyrido[2,3-b][1,4]oxazine-6-carboxamide]
4 | 0.33 | 0.99 | 46 | COC[C@H]1COc2ncc(Cc3ccc(F)cc3)cc2N1C(=O)CN1C[C@@H](C)NC[C@@H]1CN1CCOC[C@H]1C [Compound 35, 1-((S)-7-(4-fluorobenzyl)-2-(methoxymethyl)-2,3-dihydro-1H-pyrido[2,3-b][1,4]oxazin-1-yl)-2-((2R,5R)-5-methyl-2-(((R)-3-methylmorpholino)methyl)piperazin-1-yl)ethan-1-one]
5 | 0.17 | 0.28 | 6.9 | C[C@@H]1CN(CC(=O)N2c3cc(Cc4ccc(F)cc4)c(N)nc3OC[C@@H]2C)[C@@H](CN2[C@H](C)COC[C@H]2C)CN1 [Compound 115, 1-((S)-6-amino-7-(4-fluorobenzyl)-2-methyl-2,3-dihydro-1H-pyrido[2,3-b][1,4]oxazin-1-yl)-2-((2R,5R)-2-(((3R,5R)-3,5-dimethylmorpholino)methyl)-5-methylpiperazin-1-yl)ethan-1-one]
6 | 0.13 | 0.21 | 3.97 | C[C@@H]1CN(CC(=O)N2c3cc(Cc4ccc(F)cc4)cnc3OC[C@@H]2C)[C@@H](CN2[C@H](C)COC[C@H]2C)CN1 [Compound 22]
7 | 0.2 | 0.27 | 4.2 | COCCC(=O)Nc1nc2c(cc1Cc1ccc(F)cc1)N(C(=O)CN1C[C@@H](C)NC[C@@H]1CN1[C@H](C)COC[C@H]1C)[C@@H](C)CO2 [Compound 121]
8 | 0.16 | 0.57 | 7.7 | COCCNc1nc2c(cc1Cc1ccc(F)cc1)N(C(=O)CN1C[C@@H](C)NC[C@@H]1CN1[C@H](C)COC[C@H]1C)[C@@H](C)CO2 [Compound 108]

Further lines, the compound ahead of its results:

Row | SMILES | IC50 [1] [nM] | IC50 [2] [nM] | IC50 [3] [nM]
9 | C[C@@H]1CN(CC(=O)N2c3cc(Cc4ccc(F)cc4)c(C(N)=O)nc3OC[C@@H]2C)[C@@H](CN2CCOCC23CC3)CN1 [Compound 88, (S)-1-(2-((2R,5R)-2-((7-oxa-4-azaspiro[2.5]octan-4-yl)methyl)-5-methylpiperazin-1-yl)acetyl)-7-(4-fluorobenzyl)-2-methyl-2,3-dihydro-1H-pyrido[2,3-b][1,4]oxazine-6-carboxamide] | 0.35 | 0.63 | 12.4
10 | Cc1nc2c(cc1Cc1ccc(F)cc1)N(C(=O)CN1C[C@@H](C)NC[C@@H]1CN1CCOC[C@H]1C)CCO2 [Compound 5, 1-(7-(4-fluorobenzyl)-6-methyl-2,3-dihydro-1H-pyrido[2,3-b][1,4]oxazin-1-yl)-2-((2R,5R)-5-methyl-2-(((R)-3-methylmorpholino)methyl)piperazin-1-yl)ethan-1-one] | 0.7 | 1.1 | 18
11 | C[C@@H]1CN(CC(=O)N2CCOc3ncc(Cc4ccc(F)cc4)cc32)[C@@H](CN2CCOC[C@H]2C)CN1 [Compound 2, 1-(7-(4-fluorobenzyl)-2,3-dihydro-1H-pyrido[2,3-b][1,4]oxazin-1-yl)-2-((2R,5R)-5-methyl-2-(((R)-3-methylmorpholino)methyl)piperazin-1-yl)ethan-1-one formate] | 0.9 | 2.5 | 24
12 | C[C@@H]1CN(CC(=O)N2c3cc(Cc4ccc(F)cc4)c(CO)nc3OC[C@@H]2C)[C@@H](CN2CCOC[C@@H]2C2CC2)CN1 [Example 84B] | 0.78 | 1.6 | 46
13 | C[C@@H]1CN(CC(=O)N2c3cc(Cc4ccc(F)cc4)c(C(=O)NCCN(C)C)nc3OC[C@@H]2C)[C@@H](CN2[C@H](C)COC[C@H]2C)CN1 [Compound 97, (S)—N-(2-(dimethylamino)ethyl)-1-(2-((2R,5R)-2-(((3R,5R)-3,5-dimethylmorpholino)methyl)-5-methylpiperazin-1-yl)acetyl)-7-(4-fluorobenzyl)-2-methyl-2,3-dihydro-1H-pyrido[2,3-b][1,4]oxazine-6-carboxamide] | 0.27 | 0.51 | 12.5
14 | C[C@@H]1CN(CC(=O)N2c3cc(Cc4ccc(F)cc4)cnc3OC[C@@H]2c2ccccc2)[C@@H](CN2CCOC[C@H]2C)CN1 [Compound 45, 1-((S)-7-(4-fluorobenzyl)-2-phenyl-2,3-dihydro-1H-pyrido[2,3-b][1,4]oxazin-1-yl)-2-((2R,5R)-5-methyl-2-(((R)-3-methylmorpholino)methyl)piperazin-1-yl)ethan-1-one] | 0.34 | 0.65 | 8.5
15 | C[C@@H]1CN(CC(=O)N2c3cc(Cc4ccc(F)cc4)c(C(=O)NCCN4CCN(C)CC4)nc3OC[C@@H]2C)[C@@H](CN2[C@H](C)COC[C@H]2C)CN1 [Compound 99, (S)-1-(2-((2R,5R)-2-(((3R,5R)-3,5-dimethylmorpholino)methyl)-5-methylpiperazin-1-yl)acetyl)-7-(4-fluorobenzyl)-2-methyl-N-(2-(4-methylpiperazin-1-yl)ethyl)-2,3-dihydro-1H-pyrido[2,3-b][1,4]oxazine-6-carboxamide] | 0.16 | 0.43 | 12.4
